Some test systems named below: NCI-H23 lung; TK-10 renal; SF-539 CNS; OVCAR-3 ovarian; NCI-H226 lung; ACHN renal; MDA-MB-435; A549 NSCLC; SK-MEL-28 melanoma; A498 renal.
Common to all, as to test: NCI tumour cell line growth inhibition, 48 h

Where “and” joins values, the source holds several entries; their conditions need not be identical. Equal values may be shown once.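 Tested at 5 concentrations; 48 h exposure; 96-well plates; endpoints linearly interpolated, else capped at highest concentration. Abbreviation: GI50, concentration required for 50% inhibition of growth. Definition used: TGI = concentration required for complete inhibition of growth.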

Take `Cn1ccnc1C(=O)/C=C/c1ccc(C(=O)Nc2ccc(S(F)(F)(F)(F)F)cc2)cc1`: the GI50 in the assay on NCI-H23 lung was 0.853 µM; with TK-10 renal, 4 µM; in the assay on SF-539 CNS, 2.4 µM; in the assay with OVCAR-3 ovarian it was 1.05 µM; with NCI-H226 lung, 6.57 µM; with ACHN renal it was 5.12 µM. In addition, the GI50 in the assay with MDA-MB-435 is 3.04 µM; in the assay on A549 NSCLC it was 3.81 µM; in the assay with SK-MEL-28 melanoma, above 14.3 µM. For the same molecule, the TGI in the assay with NCI-H23 lung is above 14.3 µM; in the assay on TK-10 renal, above 14.3 µM; in the assay with SF-539 CNS, 6.45 µM; with OVCAR-3 ovarian, 7.26 µM; in the assay with NCI-H226 lung, above 14.3 µM; in the assay on ACHN renal, above 14.3 µM. Besides, the TGI in the assay with MDA-MB-435, in the assay on A549 NSCLC and with SK-MEL-28 melanoma was above 14.3 µM each time.
Turning to `N#C/C(=N\Nc1ccc(Cl)cc1)C(=O)Nc1cc(-c2ccccc2)nn1-c1ccccc1`, the GI50 was 2.65 µM in the assay on NCI-H23 lung; 4.82 µM in the assay on TK-10 renal; 3.29 µM with SF-539 CNS; 2.71 µM with OVCAR-3 ovarian; 2.84 µM in the assay with ACHN renal; 2.79 µM in the assay on MDA-MB-435. The GI50 in the assay on A549 NSCLC was 3.2 µM; in the assay with SK-MEL-28 melanoma, 3.62 µM. Moreover, the TGI in the assay with NCI-H23 lung, in the assay with TK-10 renal, in the assay on SF-539 CNS, in the assay on OVCAR-3 ovarian, with ACHN renal and in the assay on MDA-MB-435 was above 100 µM each time. For the same molecule, the TGI with A549 NSCLC and in the assay with SK-MEL-28 melanoma was above 100 µM each time.
Take `Cc1cc(Cl)cc2c(N=Nc3ccccc3[N+](=O)[O-])c(O)[nH]c12`: the TGI in the assay with NCI-H23 lung, in the assay on A498 renal, in the assay with TK-10 renal, in the assay with SF-539 CNS, in the assay with OVCAR-3 ovarian and in the assay on ACHN renal was above 100 µM in each case. In addition, the TGI in the assay on MDA-MB-435, with A549 NSCLC and with SK-MEL-28 melanoma was above 100 µM throughout.
`COc1ccc2c(c1O)C13CCN(C)C(C2)C1CCC1(C3)OCCO1` (centres undefined): the TGI with NCI-H23 lung, with TK-10 renal, in the assay on OVCAR-3 ovarian, in the assay with NCI-H226 lung, in the assay with ACHN renal and with MDA-MB-435 was above 100 µM in each case. Also, the TGI in the assay on A549 NSCLC and in the assay with SK-MEL-28 melanoma was above 100 µM each time.
On to `O=C(Nc1ccc(F)cc1)Nc1ccccc1CNc1nc(Nc2ccc(OCCN3CCCC3)cc2)ncc1Cl`, for which the GI50 in the assay on NCI-H23 lung was 5.63 µM; in the assay with A498 renal, 1.42 µM; in the assay with TK-10 renal, 1.77 µM; in the assay with SF-539 CNS it was 0.831 µM; in the assay with OVCAR-3 ovarian, 1.01 µM; with ACHN renal, 1.26 µM. Further, the results for the GI50 with MDA-MB-435, with A549 NSCLC and with SK-MEL-28 melanoma were 1.03 µM, 2.72 µM and 0.899 µM, respectively. Also, the TGI in the assay with NCI-H23 lung is 13.1 µM; in the assay with A498 renal, 8.21 µM; in the assay with TK-10 renal, 6.8 µM; in the assay on SF-539 CNS, 1.57 µM; in the assay with OVCAR-3 ovarian it was 2.01 µM; with ACHN renal it was 3.15 µM. The TGI in the assay with MDA-MB-435 turned out to be 2.28 µM; in the assay on A549 NSCLC, 20.9 µM; with SK-MEL-28 melanoma, 1.78 µM.
With `COc1cc(-c2nc3sccn3c2-c2ccnc(NCCNS(=O)(=O)c3ccc(Cl)cc3)n2)ccc1F`, the GI50 in the assay on NCI-H23 lung was 3.86 µM; in the assay on TK-10 renal it was 9.44 µM; with SF-539 CNS it was 6.98 µM; with OVCAR-3 ovarian, 4.94 µM; in the assay on NCI-H226 lung it was 2.37 µM; with ACHN renal it was 2.77 µM. For the same molecule, the results for the GI50 in the assay on MDA-MB-435, with A549 NSCLC and with SK-MEL-28 melanoma were 3.63 µM, 3.86 µM and 4.37 µM, respectively. Moreover, the TGI is above 100 µM in the assay with NCI-H23 lung; above 100 µM in the assay on TK-10 renal; above 100 µM with SF-539 CNS; above 100 µM in the assay on OVCAR-3 ovarian; 10.5 µM in the assay on NCI-H226 lung; above 100 µM in the assay on ACHN renal. Besides, the TGI in the assay with MDA-MB-435 was 58.1 µM; in the assay with A549 NSCLC, above 100 µM; in the assay with SK-MEL-28 melanoma it was above 100 µM.
On to `Nc1cc(C(=O)O)[nH]c(=O)n1`, for which the TGI in the assay on NCI-H23 lung, with A498 renal, with TK-10 renal, in the assay on OVCAR-3 ovarian, in the assay on NCI-H226 lung and with ACHN renal was above 100 µM throughout. Also, the TGI in the assay with MDA-MB-435, with A549 NSCLC and with SK-MEL-28 melanoma was above 100 µM each time.
For `CCOC(=O)/C(=N\OC)C(O)C(F)(F)F` (centres undefined), the TGI in the assay with NCI-H23 lung, in the assay with A498 renal, in the assay on TK-10 renal, in the assay on SF-539 CNS, in the assay on NCI-H226 lung and with ACHN renal was above 100 µM in each case. In addition, the TGI in the assay with MDA-MB-435, with A549 NSCLC and with SK-MEL-28 melanoma was above 100 µM throughout.
As for `COc1cc2c(cc1OCCCCCOc1cc3c(cc1OC)C(=O)N1CC(F)C[C@H]1C=N3)N=C[C@@H]1CC(F)CN1C2=O` (some centres undefined), the GI50 was below 0.0373 µM in the assay on NCI-H23 lung; 0.0863 µM in the assay with A498 renal; 1.98 µM in the assay with TK-10 renal; 0.0161 µM with SF-539 CNS; 0.128 µM with OVCAR-3 ovarian; below 0.0169 µM in the assay on ACHN renal. Further, the GI50 was 0.169 µM in the assay with MDA-MB-435, 0.158 µM with A549 NSCLC and 0.424 µM with SK-MEL-28 melanoma. The TGI in the assay on NCI-H23 lung came out at 0.394 µM; in the assay with A498 renal it was 0.217 µM; in the assay with TK-10 renal, 6.32 µM; with SF-539 CNS it was 0.458 µM; with OVCAR-3 ovarian, 0.51 µM; in the assay with ACHN renal, 0.167 µM. Also, the TGI in the assay on MDA-MB-435 turned out to be 0.761 µM; in the assay with A549 NSCLC it was 2.87 µM; in the assay on SK-MEL-28 melanoma, 8.45 µM.
Take `C#CCN(Cc1nc2cc(C(F)(F)F)ccc2nc1-c1ccccc1)c1ccc(OC(F)(F)F)cc1`: the GI50 is 60.5 µM with NCI-H23 lung; 50.1 µM in the assay with A498 renal; 78.9 µM in the assay with TK-10 renal; 20 µM in the assay on SF-539 CNS; 49.1 µM in the assay on OVCAR-3 ovarian; 50.2 µM in the assay on ACHN renal. Further, the GI50 was 39.4 µM in the assay on MDA-MB-435, 63.8 µM with A549 NSCLC and above 100 µM in the assay with SK-MEL-28 melanoma. Moreover, the TGI with NCI-H23 lung was above 100 µM; in the assay with A498 renal, above 100 µM; with TK-10 renal it was above 100 µM; in the assay with SF-539 CNS, 41.2 µM; in the assay on OVCAR-3 ovarian, above 100 µM; with ACHN renal it was above 100 µM. Besides, the TGI in the assay on MDA-MB-435, in the assay with A549 NSCLC and in the assay on SK-MEL-28 melanoma was above 100 µM in each case.
Turning to `CC(=O)O[C@@]12CO[C@@H]1C[C@H](O)[C@@]1(C)C(=O)[C@H](O)C3=C(C)[C@@H](OC(=O)[C@H](O)[C@@H](NC(=O)OC(C)(C)C)c4ccccc4)C[C@@](O)([C@@H](OC(=O)c4ccccc4)[C@H]21)C3(C)C`, the GI50 is 0.0192 µM in the assay on NCI-H23 lung; 0.0518 µM with A498 renal; 0.0327 µM and 0.00788 µM in the assay on TK-10 renal; 0.00666 µM and 0.0056 µM with SF-539 CNS; 0.0296 µM and 0.00642 µM with OVCAR-3 ovarian; 0.00366 µM in the assay on NCI-H226 lung. The GI50 in the assay on ACHN renal is 0.156 µM; in the assay on A549 NSCLC, 0.00454 µM; in the assay on SK-MEL-28 melanoma, 0.0327 µM and 0.0359 µM. The TGI is above 67.2 µM in the assay on NCI-H23 lung; 56.1 µM in the assay on A498 renal; 0.0612 µM and 0.0251 µM in the assay with SF-539 CNS; 0.0244 µM in the assay on OVCAR-3 ovarian; 43.4 µM with NCI-H226 lung; 67.1 µM with ACHN renal. The TGI in the assay with A549 NSCLC was above 82.2 µM; in the assay with SK-MEL-28 melanoma, 36.5 µM.
As for `O=C(Nc1ccccc1)c1nn(-c2cc(S(=O)(=O)O)c([N+](=O)[O-])cc2Cl)[n+](-c2cc(S(=O)(=O)[O-])c([N+](=O)[O-])cc2Cl)n1`, the TGI in the assay with NCI-H23 lung, in the assay on TK-10 renal, in the assay on SF-539 CNS, in the assay with OVCAR-3 ovarian, in the assay with NCI-H226 lung and in the assay with ACHN renal was above 100 µM in each case. Moreover, the TGI with MDA-MB-435, in the assay with A549 NSCLC and in the assay on SK-MEL-28 melanoma was above 100 µM each time.
Turning to `CC1(Cl)CC2OC3(Br)C=CC(C)(O)C2(CC1Br)C3(C)C` (centres undefined), the TGI in the assay on NCI-H23 lung, with A498 renal, in the assay with TK-10 renal, in the assay with SF-539 CNS, in the assay with OVCAR-3 ovarian and with NCI-H226 lung was above 100 µM each time. Moreover, the TGI in the assay with ACHN renal, in the assay with A549 NSCLC and with SK-MEL-28 melanoma was above 100 µM throughout.
`N/C(=C\C(=O)n1nc(-c2ccccc2)cc1N)c1ccccc1`: the GI50 with NCI-H23 lung was 4.59 µM; in the assay on A498 renal, 2.77 µM; with TK-10 renal, 7.72 µM; in the assay on OVCAR-3 ovarian it was 2.28 µM; in the assay with NCI-H226 lung it was 11.2 µM; with ACHN renal, 8.29 µM. In addition, the figures for the GI50 in the assay on MDA-MB-435, with A549 NSCLC and in the assay with SK-MEL-28 melanoma were 1.19 µM, 7.29 µM and 5.84 µM, respectively. Besides, the TGI in the assay on NCI-H23 lung is 22.8 µM; with A498 renal, 12.5 µM; with TK-10 renal, above 100 µM; with OVCAR-3 ovarian, 6.46 µM; with NCI-H226 lung, 47.5 µM; in the assay on ACHN renal it was above 100 µM. In addition, the TGI amounted to 3.56 µM in the assay on MDA-MB-435, 81.3 µM in the assay on A549 NSCLC and 32.3 µM in the assay on SK-MEL-28 melanoma.
